The kinase profiling compilation of Christmann-Franck et al. (2016)

Experiments:
Test in all cases: KINOMEscan competition binding
Settings in all cases: compound 10.0 µM
INSR (human) = INSR (human) (UniProt P06213)
STK11 (human) = STK11 (human) (UniProt Q15831)
MYLK (human) = MYLK (human) (UniProt Q15746)
NEK1 (human) = NEK1 (human) (UniProt Q96PY6)
RAF1 (human) = RAF1 (human) (UniProt P04049)
PTK6 (human) = PTK6 (human) (UniProt Q13882)
MAPK14 (human) = MAPK14 (human) (UniProt Q16539)
PLK4 (human) = PLK4 (human) (UniProt O00444)
TLK2 (human) = TLK2 (human) (UniProt Q86UE8)
PAK2 (human) = PAK2 (human) (UniProt Q13177)
CSNK1D (human) = CSNK1D (human) (UniProt P48730)
MAP3K9 (human) = MAP3K9 (human) (UniProt P80192)
IRAK3 (human) = IRAK3 (human) (UniProt Q9Y616)
FGFR1 (human) = FGFR1 (human) (UniProt P11362)
MERTK (human) = MERTK (human) (UniProt Q12866)
MARK4 (human) = MARK4 (human) (UniProt Q96L34)
[1] = tested on: FLT3 (human), P36888 [ITD]
ALK (human) = ALK (human) (UniProt Q9UM73)
TSSK1B (human) = TSSK1B (human) (UniProt Q9BXA7)
ADCK4 (human) = ADCK4 (human) (UniProt Q96D53)
CDK16 (human) = CDK16 (human) (UniProt Q00536)
MAPK7 (human) = MAPK7 (human) (UniProt Q13164)
CIT (human) = CIT (human) (UniProt O14578)
FER (human) = FER (human) (UniProt P16591)
CHEK1 (human) = CHEK1 (human) (UniProt O14757)
NEK6 (human) = NEK6 (human) (UniProt Q9HC98)
PDGFRA (human) = PDGFRA (human) (UniProt P16234)
ERBB4 (human) = ERBB4 (human) (UniProt Q15303)
CAMKK2 (human) = CAMKK2 (human) (UniProt Q96RR4)
LIMK2 (human) = LIMK2 (human) (UniProt P53671)
MINK1 (human) = MINK1 (human) (UniProt Q8N4C8)
LCK (human) = LCK (human) (UniProt P06239)
CAMK2D (human) = CAMK2D (human) (UniProt Q13557)
HCK (human) = HCK (human) (UniProt P08631)
CAMK4 (human) = CAMK4 (human) (UniProt Q16566)
CLK2 (human) = CLK2 (human) (UniProt P49760)
HIPK1 (human) = HIPK1 (human) (UniProt Q86Z02)
CSF1R (human) = CSF1R (human) (UniProt P07333)
PRKACB (human) = PRKACB (human) (UniProt P22694)
EPHA4 (human) = EPHA4 (human) (UniProt P54764)
MAP3K7 (human) = MAP3K7 (human) (UniProt O43318)

Chain of CIT (human) (O14578 whole entry, looked up): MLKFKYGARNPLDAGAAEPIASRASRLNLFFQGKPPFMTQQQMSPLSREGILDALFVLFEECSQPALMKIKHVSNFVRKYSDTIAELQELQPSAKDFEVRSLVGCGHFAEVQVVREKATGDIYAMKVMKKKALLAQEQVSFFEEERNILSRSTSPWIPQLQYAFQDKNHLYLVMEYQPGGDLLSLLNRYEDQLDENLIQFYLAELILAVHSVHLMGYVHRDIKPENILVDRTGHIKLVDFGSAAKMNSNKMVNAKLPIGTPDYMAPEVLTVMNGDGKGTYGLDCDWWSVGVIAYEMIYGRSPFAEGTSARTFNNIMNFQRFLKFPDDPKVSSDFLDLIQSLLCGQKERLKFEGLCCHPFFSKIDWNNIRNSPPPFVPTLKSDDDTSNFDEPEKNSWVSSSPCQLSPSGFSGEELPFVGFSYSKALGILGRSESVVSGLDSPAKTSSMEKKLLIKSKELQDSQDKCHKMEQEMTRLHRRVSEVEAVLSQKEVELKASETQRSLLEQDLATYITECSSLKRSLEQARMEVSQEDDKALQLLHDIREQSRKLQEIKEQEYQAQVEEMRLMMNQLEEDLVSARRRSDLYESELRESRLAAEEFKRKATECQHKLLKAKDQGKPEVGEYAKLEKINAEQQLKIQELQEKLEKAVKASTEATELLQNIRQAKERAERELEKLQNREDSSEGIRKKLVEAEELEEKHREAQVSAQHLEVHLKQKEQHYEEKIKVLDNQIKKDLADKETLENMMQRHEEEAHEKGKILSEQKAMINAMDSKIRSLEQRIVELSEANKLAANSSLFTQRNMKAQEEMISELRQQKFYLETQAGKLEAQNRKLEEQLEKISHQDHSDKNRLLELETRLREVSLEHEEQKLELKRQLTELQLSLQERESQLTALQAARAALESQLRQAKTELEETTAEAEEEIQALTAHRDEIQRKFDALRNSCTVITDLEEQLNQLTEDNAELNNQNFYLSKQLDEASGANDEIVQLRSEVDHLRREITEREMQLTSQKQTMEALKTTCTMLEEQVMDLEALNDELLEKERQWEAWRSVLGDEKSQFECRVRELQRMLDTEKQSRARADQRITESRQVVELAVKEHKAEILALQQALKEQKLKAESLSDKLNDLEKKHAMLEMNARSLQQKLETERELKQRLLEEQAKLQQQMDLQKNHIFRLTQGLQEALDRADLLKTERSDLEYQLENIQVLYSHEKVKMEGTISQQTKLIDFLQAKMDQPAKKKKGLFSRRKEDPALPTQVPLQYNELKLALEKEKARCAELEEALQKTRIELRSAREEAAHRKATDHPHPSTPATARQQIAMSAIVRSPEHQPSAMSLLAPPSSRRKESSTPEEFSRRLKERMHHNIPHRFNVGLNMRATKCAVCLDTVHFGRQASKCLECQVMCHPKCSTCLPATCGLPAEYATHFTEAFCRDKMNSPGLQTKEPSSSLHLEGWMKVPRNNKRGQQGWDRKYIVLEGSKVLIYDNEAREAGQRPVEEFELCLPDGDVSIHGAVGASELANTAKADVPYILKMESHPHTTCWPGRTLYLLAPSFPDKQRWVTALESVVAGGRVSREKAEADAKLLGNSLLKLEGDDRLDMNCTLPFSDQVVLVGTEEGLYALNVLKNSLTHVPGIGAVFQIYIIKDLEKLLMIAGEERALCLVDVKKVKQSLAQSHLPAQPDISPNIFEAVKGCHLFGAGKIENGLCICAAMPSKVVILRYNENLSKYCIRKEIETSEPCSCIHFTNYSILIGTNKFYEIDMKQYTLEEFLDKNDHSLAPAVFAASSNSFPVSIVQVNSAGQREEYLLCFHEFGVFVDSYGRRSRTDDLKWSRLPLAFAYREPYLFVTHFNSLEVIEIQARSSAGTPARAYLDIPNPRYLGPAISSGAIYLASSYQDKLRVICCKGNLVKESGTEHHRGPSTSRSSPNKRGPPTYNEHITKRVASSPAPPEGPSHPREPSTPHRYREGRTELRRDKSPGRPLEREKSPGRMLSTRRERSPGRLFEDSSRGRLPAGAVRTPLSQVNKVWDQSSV
Chain of NEK1 (human) (Q96PY6 whole entry, looked up): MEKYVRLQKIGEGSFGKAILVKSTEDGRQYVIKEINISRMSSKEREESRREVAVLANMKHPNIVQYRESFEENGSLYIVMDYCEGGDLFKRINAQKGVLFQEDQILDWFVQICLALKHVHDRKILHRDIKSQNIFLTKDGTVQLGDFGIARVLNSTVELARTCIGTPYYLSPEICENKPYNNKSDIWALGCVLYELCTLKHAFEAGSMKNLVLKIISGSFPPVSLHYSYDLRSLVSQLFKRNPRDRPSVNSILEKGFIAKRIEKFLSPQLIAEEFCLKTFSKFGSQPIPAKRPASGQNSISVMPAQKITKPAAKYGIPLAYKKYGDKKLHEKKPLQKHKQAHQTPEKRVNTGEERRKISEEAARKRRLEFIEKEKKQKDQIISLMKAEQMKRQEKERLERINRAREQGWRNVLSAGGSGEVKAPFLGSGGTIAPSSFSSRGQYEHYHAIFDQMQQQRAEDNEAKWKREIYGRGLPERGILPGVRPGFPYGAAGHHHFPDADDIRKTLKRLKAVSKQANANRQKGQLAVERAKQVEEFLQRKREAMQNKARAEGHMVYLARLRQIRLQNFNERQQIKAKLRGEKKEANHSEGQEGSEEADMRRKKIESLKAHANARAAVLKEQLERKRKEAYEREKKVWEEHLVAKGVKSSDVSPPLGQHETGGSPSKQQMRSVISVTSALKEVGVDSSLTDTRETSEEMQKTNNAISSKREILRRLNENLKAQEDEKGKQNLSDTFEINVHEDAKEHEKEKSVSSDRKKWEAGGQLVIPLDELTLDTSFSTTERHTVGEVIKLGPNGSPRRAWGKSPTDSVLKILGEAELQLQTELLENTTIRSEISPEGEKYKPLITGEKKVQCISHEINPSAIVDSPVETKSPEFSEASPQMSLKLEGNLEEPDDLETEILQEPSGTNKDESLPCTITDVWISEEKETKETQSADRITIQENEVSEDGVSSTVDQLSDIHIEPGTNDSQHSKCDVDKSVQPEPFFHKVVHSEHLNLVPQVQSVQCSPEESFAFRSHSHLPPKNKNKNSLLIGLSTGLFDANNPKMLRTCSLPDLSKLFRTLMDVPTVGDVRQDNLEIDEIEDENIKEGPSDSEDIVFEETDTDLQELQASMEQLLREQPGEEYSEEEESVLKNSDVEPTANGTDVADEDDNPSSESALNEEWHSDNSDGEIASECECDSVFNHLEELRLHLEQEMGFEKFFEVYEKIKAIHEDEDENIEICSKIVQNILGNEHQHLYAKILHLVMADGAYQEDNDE
Chain of RAF1 (human) (P04049 whole entry, looked up): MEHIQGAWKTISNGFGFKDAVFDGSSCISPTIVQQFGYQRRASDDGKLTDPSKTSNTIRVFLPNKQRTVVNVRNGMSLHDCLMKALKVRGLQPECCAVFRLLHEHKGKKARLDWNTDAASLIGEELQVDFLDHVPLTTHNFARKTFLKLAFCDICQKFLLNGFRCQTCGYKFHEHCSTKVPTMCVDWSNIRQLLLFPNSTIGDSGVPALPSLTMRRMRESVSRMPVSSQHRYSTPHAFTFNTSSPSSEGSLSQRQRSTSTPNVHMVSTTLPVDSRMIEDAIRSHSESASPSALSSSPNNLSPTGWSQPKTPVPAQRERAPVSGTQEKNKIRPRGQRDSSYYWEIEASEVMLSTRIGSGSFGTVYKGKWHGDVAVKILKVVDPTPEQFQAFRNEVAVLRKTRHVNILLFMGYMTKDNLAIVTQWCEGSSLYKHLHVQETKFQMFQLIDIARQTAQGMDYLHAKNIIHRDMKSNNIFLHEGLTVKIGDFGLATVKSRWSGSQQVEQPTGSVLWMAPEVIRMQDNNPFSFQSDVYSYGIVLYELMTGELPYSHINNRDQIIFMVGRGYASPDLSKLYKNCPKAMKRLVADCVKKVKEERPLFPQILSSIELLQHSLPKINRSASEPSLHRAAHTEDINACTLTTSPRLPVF
Chain of LIMK2 (human) (P53671 whole entry, looked up): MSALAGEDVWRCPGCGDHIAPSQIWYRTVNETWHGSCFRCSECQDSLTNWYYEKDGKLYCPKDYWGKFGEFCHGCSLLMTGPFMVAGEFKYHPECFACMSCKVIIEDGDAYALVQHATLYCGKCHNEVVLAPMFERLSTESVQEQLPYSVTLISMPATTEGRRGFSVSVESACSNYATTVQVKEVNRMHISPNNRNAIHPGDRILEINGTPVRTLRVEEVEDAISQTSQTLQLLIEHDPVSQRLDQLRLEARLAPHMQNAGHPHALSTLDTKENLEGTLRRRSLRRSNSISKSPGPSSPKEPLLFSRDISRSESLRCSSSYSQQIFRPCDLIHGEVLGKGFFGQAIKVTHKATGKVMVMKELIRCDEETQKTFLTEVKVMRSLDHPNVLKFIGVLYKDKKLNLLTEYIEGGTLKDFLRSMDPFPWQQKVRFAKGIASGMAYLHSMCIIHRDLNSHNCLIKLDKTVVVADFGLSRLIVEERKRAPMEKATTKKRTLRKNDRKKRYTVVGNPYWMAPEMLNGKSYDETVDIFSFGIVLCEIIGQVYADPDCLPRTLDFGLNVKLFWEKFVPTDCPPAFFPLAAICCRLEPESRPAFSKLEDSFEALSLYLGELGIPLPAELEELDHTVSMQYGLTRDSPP
Chain of ADCK4 (human) (Q96D53 whole entry, looked up): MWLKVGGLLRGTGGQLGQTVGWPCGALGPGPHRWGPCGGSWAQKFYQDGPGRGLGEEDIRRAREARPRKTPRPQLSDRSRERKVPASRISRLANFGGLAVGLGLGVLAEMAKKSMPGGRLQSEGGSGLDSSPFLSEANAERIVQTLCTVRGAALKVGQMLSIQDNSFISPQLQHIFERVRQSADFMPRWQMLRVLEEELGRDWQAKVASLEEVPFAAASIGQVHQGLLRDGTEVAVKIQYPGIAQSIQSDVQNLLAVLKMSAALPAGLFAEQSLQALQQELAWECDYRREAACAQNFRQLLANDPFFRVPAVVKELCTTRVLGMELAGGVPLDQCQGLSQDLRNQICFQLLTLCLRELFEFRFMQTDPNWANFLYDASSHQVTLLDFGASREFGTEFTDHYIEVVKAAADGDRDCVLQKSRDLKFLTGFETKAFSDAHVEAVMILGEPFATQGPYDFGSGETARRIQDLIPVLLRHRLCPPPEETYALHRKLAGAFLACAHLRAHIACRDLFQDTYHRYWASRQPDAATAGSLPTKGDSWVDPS

Q: With `CCN1CCN(Cc2ccc(Nc3ncc4c(n3)N(C)c3ccccc3C(=O)N4C)cc2C(F)(F)F)CC1` as the compound, how does the kinase still bound, per cent of control (INSR (human)) read?
A: 92%

Q: And the kinase still bound, per cent of control (STK11 (human))?
A: 89%

Q: And the kinase still bound, per cent of control (MYLK (human))?
A: 64%

Q: And the kinase still bound, per cent of control (NEK1 (human))?
A: 66%

Q: What about the kinase still bound, per cent of control (RAF1 (human)) of the same compound?
A: 100%

Q: And the kinase still bound, per cent of control (PTK6 (human))?
A: 29%

Q: What about the kinase still bound, per cent of control (MAPK14 (human)) of the same compound?
A: 100%

Q: What about the kinase still bound, per cent of control (PLK4 (human)) of the same compound?
A: 0.1%

Q: And the kinase still bound, per cent of control (TLK2 (human))?
A: 89%

Q: What about the kinase still bound, per cent of control (PAK2 (human)) of the same compound?
A: 78%

Q: What about the kinase still bound, per cent of control (CSNK1D (human)) of the same compound?
A: 32%

Q: And the kinase still bound, per cent of control (MAP3K9 (human))?
A: 58%

Q: What about the kinase still bound, per cent of control (IRAK3 (human)) of the same compound?
A: 69%

Q: What about the kinase still bound, per cent of control (FGFR1 (human)) of the same compound?
A: 17%

Q: What about the kinase still bound, per cent of control (MERTK (human)) of the same compound?
A: 48%

Q: And the kinase still bound, per cent of control (MARK4 (human))?
A: 19%

Q: And the kinase still bound, per cent of control [1]?
A: 19%

Q: What about the kinase still bound, per cent of control (ALK (human)) of the same compound?
A: 64%

Q: And the kinase still bound, per cent of control (TSSK1B (human))?
A: 49%

Q: And the kinase still bound, per cent of control (ADCK4 (human))?
A: 57%

Q: What about the kinase still bound, per cent of control (CDK16 (human)) of the same compound?
A: 92%

Q: What about the kinase still bound, per cent of control (MAPK7 (human)) of the same compound?
A: 0.1%

Q: What about the kinase still bound, per cent of control (CIT (human)) of the same compound?
A: 99%

Q: And the kinase still bound, per cent of control (FER (human))?
A: 100%

Q: And the kinase still bound, per cent of control (CHEK1 (human))?
A: 57%

Q: And the kinase still bound, per cent of control (NEK6 (human))?
A: 64%

Q: What about the kinase still bound, per cent of control (PDGFRA (human)) of the same compound?
A: 100%

Q: What about the kinase still bound, per cent of control (ERBB4 (human)) of the same compound?
A: 95%

Q: And the kinase still bound, per cent of control (CAMKK2 (human))?
A: 47%

Q: What about the kinase still bound, per cent of control (LIMK2 (human)) of the same compound?
A: 85%

Q: And the kinase still bound, per cent of control (MINK1 (human))?
A: 68%

Q: What about the kinase still bound, per cent of control (LCK (human)) of the same compound?
A: 5%

Q: What about the kinase still bound, per cent of control (CAMK2D (human)) of the same compound?
A: 69%

Q: And the kinase still bound, per cent of control (HCK (human))?
A: 24%

Q: What about the kinase still bound, per cent of control (CAMK4 (human)) of the same compound?
A: 100%

Q: And the kinase still bound, per cent of control (CLK2 (human))?
A: 39%

Q: What about the kinase still bound, per cent of control (HIPK1 (human)) of the same compound?
A: 78%

Q: What about the kinase still bound, per cent of control (CSF1R (human)) of the same compound?
A: 0.5%

Q: And the kinase still bound, per cent of control (PRKACB (human))?
A: 100%

Q: And the kinase still bound, per cent of control (EPHA4 (human))?
A: 100%

Q: What about the kinase still bound, per cent of control (MAP3K7 (human)) of the same compound?
A: 17%

Q: With `C=CC(=O)Nc1cc(NC(=O)c2ccc(C)c(NC(=O)c3ccno3)c2)cc(C(F)(F)F)c1` as the compound, how does the kinase still bound, per cent of control (INSR (human)) read?
A: 92%

Q: What about the kinase still bound, per cent of control (STK11 (human)) of the same compound?
A: 100%

Q: What about the kinase still bound, per cent of control (MYLK (human)) of the same compound?
A: 100%

Q: And the kinase still bound, per cent of control (NEK1 (human))?
A: 100%

Q: And the kinase still bound, per cent of control (RAF1 (human))?
A: 40%

Q: What about the kinase still bound, per cent of control (PTK6 (human)) of the same compound?
A: 100%

Q: What about the kinase still bound, per cent of control (MAPK14 (human)) of the same compound?
A: 0.5%

Q: What about the kinase still bound, per cent of control (PLK4 (human)) of the same compound?
A: 91%

Q: And the kinase still bound, per cent of control (TLK2 (human))?
A: 100%

Q: And the kinase still bound, per cent of control (PAK2 (human))?
A: 71%

Q: And the kinase still bound, per cent of control (CSNK1D (human))?
A: 100%

Q: What about the kinase still bound, per cent of control (MAP3K9 (human)) of the same compound?
A: 98%

Q: What about the kinase still bound, per cent of control (IRAK3 (human)) of the same compound?
A: 100%

Q: What about the kinase still bound, per cent of control (FGFR1 (human)) of the same compound?
A: 100%

Q: And the kinase still bound, per cent of control (MERTK (human))?
A: 99%

Q: And the kinase still bound, per cent of control (MARK4 (human))?
A: 100%

Q: And the kinase still bound, per cent of control [1]?
A: 99%

Q: And the kinase still bound, per cent of control (ALK (human))?
A: 95%

Q: What about the kinase still bound, per cent of control (TSSK1B (human)) of the same compound?
A: 93%

Q: And the kinase still bound, per cent of control (ADCK4 (human))?
A: 97%

Q: And the kinase still bound, per cent of control (CDK16 (human))?
A: 95%

Q: What about the kinase still bound, per cent of control (MAPK7 (human)) of the same compound?
A: 92%

Q: What about the kinase still bound, per cent of control (CIT (human)) of the same compound?
A: 97%

Q: And the kinase still bound, per cent of control (FER (human))?
A: 100%

Q: And the kinase still bound, per cent of control (CHEK1 (human))?
A: 96%

Q: What about the kinase still bound, per cent of control (NEK6 (human)) of the same compound?
A: 100%

Q: And the kinase still bound, per cent of control (PDGFRA (human))?
A: 41%

Q: What about the kinase still bound, per cent of control (ERBB4 (human)) of the same compound?
A: 100%

Q: And the kinase still bound, per cent of control (CAMKK2 (human))?
A: 69%

Q: What about the kinase still bound, per cent of control (LIMK2 (human)) of the same compound?
A: 96%

Q: And the kinase still bound, per cent of control (MINK1 (human))?
A: 84%

Q: And the kinase still bound, per cent of control (LCK (human))?
A: 45%

Q: What about the kinase still bound, per cent of control (CAMK2D (human)) of the same compound?
A: 83%

Q: What about the kinase still bound, per cent of control (HCK (human)) of the same compound?
A: 60%

Q: What about the kinase still bound, per cent of control (CAMK4 (human)) of the same compound?
A: 100%

Q: What about the kinase still bound, per cent of control (CLK2 (human)) of the same compound?
A: 80%

Q: What about the kinase still bound, per cent of control (HIPK1 (human)) of the same compound?
A: 97%

Q: What about the kinase still bound, per cent of control (CSF1R (human)) of the same compound?
A: 38%

Q: And the kinase still bound, per cent of control (PRKACB (human))?
A: 100%

Q: And the kinase still bound, per cent of control (EPHA4 (human))?
A: 48%

Q: What about the kinase still bound, per cent of control (MAP3K7 (human)) of the same compound?
A: 98%

Q: For `C=CC(=O)Nc1cccc(Nc2nc(N[C@H]3CC[C@H](N(C)C)CC3)nc3c2ncn3C(C)C)c1`, which kinase still bound, per cent of control (INSR (human)) is on record?
A: 69%

Q: And the kinase still bound, per cent of control (STK11 (human))?
A: 66%

Q: And the kinase still bound, per cent of control (MYLK (human))?
A: 55%

Q: What about the kinase still bound, per cent of control (NEK1 (human)) of the same compound?
A: 100%

Q: And the kinase still bound, per cent of control (RAF1 (human))?
A: 100%

Q: What about the kinase still bound, per cent of control (PTK6 (human)) of the same compound?
A: 100%

Q: And the kinase still bound, per cent of control (MAPK14 (human))?
A: 95%

Q: What about the kinase still bound, per cent of control (PLK4 (human)) of the same compound?
A: 85%

Q: What about the kinase still bound, per cent of control (TLK2 (human)) of the same compound?
A: 100%

Q: What about the kinase still bound, per cent of control (PAK2 (human)) of the same compound?
A: 61%

Q: What about the kinase still bound, per cent of control (CSNK1D (human)) of the same compound?
A: 0.75%

Q: What about the kinase still bound, per cent of control (MAP3K9 (human)) of the same compound?
A: 17%

Q: And the kinase still bound, per cent of control (IRAK3 (human))?
A: 38%

Q: And the kinase still bound, per cent of control (FGFR1 (human))?
A: 76%

Q: And the kinase still bound, per cent of control (MERTK (human))?
A: 16%

Q: And the kinase still bound, per cent of control (MARK4 (human))?
A: 94%

Q: What about the kinase still bound, per cent of control [1] of the same compound?
A: 1%

Q: What about the kinase still bound, per cent of control (ALK (human)) of the same compound?
A: 21%

Q: What about the kinase still bound, per cent of control (TSSK1B (human)) of the same compound?
A: 97%

Q: What about the kinase still bound, per cent of control (ADCK4 (human)) of the same compound?
A: 94%

Q: And the kinase still bound, per cent of control (CDK16 (human))?
A: 100%

Q: What about the kinase still bound, per cent of control (MAPK7 (human)) of the same compound?
A: 100%

Q: And the kinase still bound, per cent of control (CIT (human))?
A: 50%

Q: And the kinase still bound, per cent of control (FER (human))?
A: 74%

Q: What about the kinase still bound, per cent of control (CHEK1 (human)) of the same compound?
A: 87%

Q: And the kinase still bound, per cent of control (NEK6 (human))?
A: 90%

Q: What about the kinase still bound, per cent of control (PDGFRA (human)) of the same compound?
A: 59%

Q: What about the kinase still bound, per cent of control (ERBB4 (human)) of the same compound?
A: 76%

Q: What about the kinase still bound, per cent of control (CAMKK2 (human)) of the same compound?
A: 25%

Q: And the kinase still bound, per cent of control (LIMK2 (human))?
A: 100%

Q: What about the kinase still bound, per cent of control (MINK1 (human)) of the same compound?
A: 27%

Q: And the kinase still bound, per cent of control (LCK (human))?
A: 38%

Q: And the kinase still bound, per cent of control (CAMK2D (human))?
A: 53%

Q: What about the kinase still bound, per cent of control (HCK (human)) of the same compound?
A: 27%

Q: What about the kinase still bound, per cent of control (CAMK4 (human)) of the same compound?
A: 100%

Q: And the kinase still bound, per cent of control (CLK2 (human))?
A: 0.5%

Q: What about the kinase still bound, per cent of control (HIPK1 (human)) of the same compound?
A: 25%

Q: What about the kinase still bound, per cent of control (CSF1R (human)) of the same compound?
A: 52%

Q: And the kinase still bound, per cent of control (PRKACB (human))?
A: 100%

Q: What about the kinase still bound, per cent of control (EPHA4 (human)) of the same compound?
A: 64%

Q: And the kinase still bound, per cent of control (MAP3K7 (human))?
A: 21%
